Where two headings read alike, the source gives them in different places.
Tests used:
[1] = tested on: tetrabenazine-induced ptosis in mice; test: Prevention of tetrabenazine-induced ptosis in mice (antidepressant activity); assay type: in vivo; conditions: Mus musculus, po, read-out: ED50 (antidepressant activity)
From the text: The test method and results are described below.
PREVENTION OF TETRABENAZINE-INDUCED PTOSIS IN MICE
Tetrabenazine (TBZ) induces behavioral depression with concomitant ptosis in mice similar to reserpine. Antidepressant compounds, both monoamineoxidase inhibitors and tricyclics, are known to prevent or antagonize these effects and the degree of antagonism correlates with clinical efficacy. The prevention of TBZ-induced ptosis in mice is used as a preliminary screen for possible antidepressant activity. The method used in this invention is as follows:
Male mice weighing 20 to 30 grams are used in test groups of five subjects. All compounds are dissolved or suspended with a suitable surfactant in distilled water and administered in volumes of 10 ml/kg of body weight. TBZ solution is made from the methanesulfonate salt and the concentration is adjusted to enable administration of 60 mg/kg of base by intraperitoneal (i.p.) injection.
The pretreatment time is measured from the time of dosing to observation. Therefore, when a 30-minute pretreat is utilized, drug and TBZ are given simultaneously. A control group received solvent and TBZ at intervals identical to drug group. For a primary screen, the drug is administered i.p. and a group size of five is utilized. Eight animals/group are used for a dose range.
The total score for each group of five in a primary screen will, therefore, be from 0 to 20 and these scores are used as indications of drug activity.
The vehicle control group score is used as a determinant of the validity of each test. […] The calculation of percent inhibition of ptosis is: [formula]

[2] = tested on: 2-phenyl-1,4-benzoquinone-induced writhing in mice; test: 2-phenyl-1,4-benzoquinone-induced writhing (PQW) test in mice (analgesia); assay type: in vivo; conditions: s.c.
From the text: Compounds I of the present invention are also useful as analgesic agents due to their ability to alleviate pain in mammals. […] Exptl. Biol. Med., 95, 729(1957)] and in modified Haffner's analgesia.

[3] = tested on: sensitivity of mice to pressure stress (artery clip on tail); test: Modified Haffner's analgesia (artery clip on tail); assay type: in vivo, mice (Charles River; conditions: Mus musculus, sc; at peak time of drug activity; male CD-1 mice
From the text: The latter assay is used to evaluate analgesic activity by measuring drug-induced changes in the sensitivity of mice to pressure stress by placing an artery clip (21/2 inches long) on their tail. The procedure used is a modification of the test developed by Haffner, Dtsch. Med. Wschr. 55, 731 (1929), and it is described below:
Male mice (Charles River, CD-1) from 18-30 grams are used for the test. An artery clip is applied to the root of the tail of a mouse (approximately 1/2 inch from the body) to induce pain. The animals quickly responds to this noxious stimuli by biting the clip or the location of the clip. This reaction time, the interval between stimulus onset and response, is recorded on 1/10 second increments by a stop watch.
For a time response, the screening dose (25 mg/kg) is administered subcutaneously (10 ml/kg) to the animal receiving food and water ad libitum before testing. […]
The cut-off time (CO) is determined by taking the (x) average +3 standard (SD) deviation of the combined response latencies of the control mice in all time periods.
Any reaction time, in subsequent drug tests, which is greater than the CO (for the same time period) therefore exceeds 99% of normal Gaussian distribution and is called "positive response" indicative of analgesic activity. […] The ED50 is determined at the peak time of drug activity. […] ED50 's are calculated using computer analysis.

| SMILES | ED50 ([1]; TBZ 60 mg/kg i.p., male mice) [mg/kg] | ED50 [3] [mg/kg] | other results |
| --- | --- | --- | --- |
| CNCCCN1c2ccccc2CCc2ccccc21 [Desipramine, reference compound] | – | – | ED50 [1]: 2.3 mg/kg |
| O=C(O)/C=C\C(=O)O.c1ccc2c(c1)cnn2Nc1ccncc1 [N-(4-Pyridinyl)-1H-indazol-1-amine maleate] | 2.7 | 10.4 | PQW (% Inhibition of writhing) ([2]; at 0.7 mg/kg): 50% |
| CCCN(c1ccncc1)n1ncc2ccccc21.O=C(O)/C=C\C(=O)O [N-(Propyl)-N-(4-pyridinyl)-1H-indazol-1-amine maleate] | 8.5 | – | PQW (% Inhibition of writhing) ([2]; at 20 mg/kg): 62% |
| CC(C)=CCN1CCC2(C)c3cc(O)ccc3CC1C2C (centres unmarked) [Pentazocin, reference compound] | – | 3.9 | PQW (% Inhibition of writhing) ([2]; at 1.3 mg/kg): 50% |
